Measured values taken from patent publication US12594336B2, “Trace element solution” (WARBURTON TECHNOLOGY LIMITED, priority 2012, dated 2026).

Tests used:
[1] = Physical stability study (visual inspection) of stabilizer solutions with vitamin B12 at ambient temperature; assay type: physicochemical
Description: Based on known injectable processes, with organometallics complex with EDTA, incorporation of vitamin B12 was screened by testing 3 possible different stabilizers. • Second Phase consists in evaluating the physical and chemical stability of the formulations which have been developed during precedent phase with the aim to select stable formulation prototypes.
Physical stability study was performed at 5° C., 25° C./60% RH and 40° C./75% RH: T0, T1, T2 and T3 months. A visual inspection was checked at different periods in order to control the absence of precipitation in the formulations. Assay of vitamin B12 was followed up on stability at 25° C./60% RH and 40° C./75% RH: T0, T3 and T6 months.
Then a quantity of stock solution of vitamin B12 was incorporated in the mix to have a final concentration of 0.15% w/v.
Physical stability study was performed on 5 and 10% w/v butaphosphan (with vitamin B12) solutions at ambient temperature: […]

[2] = Feasibility study: incorporation/solubilisation of stabilizers in the EDTA-complexed trace element solution
Description: Incorporation of vitamin B12 with different stabilizers was screened.
The following concentrations of butaphosphan have been tested:

| SMILES | physical stability, appearance ([1]; 5 and 10% w/v butaphosphan with vitamin B12 (0.15% w/v), ambient temperature, T1 week) | physical stability, appearance ([1]; 5 and 10% w/v butaphosphan with vitamin B12 (0.15% w/v), ambient temperature, T2 weeks) | physical stability, appearance ([1]; 5 and 10% w/v butaphosphan with vitamin B12 (0.15% w/v), ambient temperature, T4 weeks) | appearance of solution obtained ([2]; butaphosphan 5% w/v) | appearance of solution obtained ([2]; butaphosphan 10% w/v) | physical stability, appearance ([1]; 5 and 15% w/v glycine with vitamin B12, ambient temperature, T1 week) | physical stability, appearance ([1]; 5 and 15% w/v glycine with vitamin B12, ambient temperature, T2 weeks) | physical stability, appearance ([1]; 5 and 15% w/v glycine with vitamin B12, ambient temperature, T4 weeks) |
| --- | --- | --- | --- | --- | --- | --- | --- | --- |
| CCCCNC(C)(C)[PH](=O)O [butaphosphan, (1-Butylamino-1-methyl-ethyl)-phosphinic acid] | dark clear solution | dark clear solution | dark clear solution | dark clear solution without particles | dark clear solution without particles |  |  |  |
| NCC(=O)O [glycine, Glycine] |  |  |  |  |  | dark clear solution with particle | dark clear solution with particle | dark clear solution with particle |
